In assay [1] the target is T1, p300 (Homo sapiens, UniProt Q09472).
T1 construct: host or cells: A549 P300 HiBit cells
In words: P300 degradation, HiBit technology in A549 P300 HiBit cells (2 h). In kind it is cell-based. To be noted: 2 hrs post treatment; for Dmax: A549, A549 P300 HiBit cells; for DC50: A549 P300 HiBit cells. A digest of the protocol:
(§1)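 Cells: A549 HiBiT-tagged lines, 0.2×10^4/well, F-12K + 10% HI-FBS, equilibrated overnight. Tx: serial dilution of cpd (10 mM DMSO stock). Readout: HiBiT lytic reagent, 10 min RT shaking, luminescence → potency, Dmax.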
(With HiBiT, luminescence reflects the tagged protein that the partner subunit can reach.)

Assay [2] has as its target T2, CBP (Homo sapiens, UniProt Q92793).
T2 construct: host or cells: A549 CBP HiBit cells
In words: CBP degradation, HiBit technology in A549 CBP HiBit cells (24 h). The format is cell-based. The settings on record: 24 hrs post treatment. A digest of the protocol:
as §1

What is called Dmax is the largest share of the target that was removed. Lower therefore signals a partial loss of target. The term DC50 denotes the concentration at which degradation of the target reaches its halfway point.

T2 sequence (Q92793 whole entry): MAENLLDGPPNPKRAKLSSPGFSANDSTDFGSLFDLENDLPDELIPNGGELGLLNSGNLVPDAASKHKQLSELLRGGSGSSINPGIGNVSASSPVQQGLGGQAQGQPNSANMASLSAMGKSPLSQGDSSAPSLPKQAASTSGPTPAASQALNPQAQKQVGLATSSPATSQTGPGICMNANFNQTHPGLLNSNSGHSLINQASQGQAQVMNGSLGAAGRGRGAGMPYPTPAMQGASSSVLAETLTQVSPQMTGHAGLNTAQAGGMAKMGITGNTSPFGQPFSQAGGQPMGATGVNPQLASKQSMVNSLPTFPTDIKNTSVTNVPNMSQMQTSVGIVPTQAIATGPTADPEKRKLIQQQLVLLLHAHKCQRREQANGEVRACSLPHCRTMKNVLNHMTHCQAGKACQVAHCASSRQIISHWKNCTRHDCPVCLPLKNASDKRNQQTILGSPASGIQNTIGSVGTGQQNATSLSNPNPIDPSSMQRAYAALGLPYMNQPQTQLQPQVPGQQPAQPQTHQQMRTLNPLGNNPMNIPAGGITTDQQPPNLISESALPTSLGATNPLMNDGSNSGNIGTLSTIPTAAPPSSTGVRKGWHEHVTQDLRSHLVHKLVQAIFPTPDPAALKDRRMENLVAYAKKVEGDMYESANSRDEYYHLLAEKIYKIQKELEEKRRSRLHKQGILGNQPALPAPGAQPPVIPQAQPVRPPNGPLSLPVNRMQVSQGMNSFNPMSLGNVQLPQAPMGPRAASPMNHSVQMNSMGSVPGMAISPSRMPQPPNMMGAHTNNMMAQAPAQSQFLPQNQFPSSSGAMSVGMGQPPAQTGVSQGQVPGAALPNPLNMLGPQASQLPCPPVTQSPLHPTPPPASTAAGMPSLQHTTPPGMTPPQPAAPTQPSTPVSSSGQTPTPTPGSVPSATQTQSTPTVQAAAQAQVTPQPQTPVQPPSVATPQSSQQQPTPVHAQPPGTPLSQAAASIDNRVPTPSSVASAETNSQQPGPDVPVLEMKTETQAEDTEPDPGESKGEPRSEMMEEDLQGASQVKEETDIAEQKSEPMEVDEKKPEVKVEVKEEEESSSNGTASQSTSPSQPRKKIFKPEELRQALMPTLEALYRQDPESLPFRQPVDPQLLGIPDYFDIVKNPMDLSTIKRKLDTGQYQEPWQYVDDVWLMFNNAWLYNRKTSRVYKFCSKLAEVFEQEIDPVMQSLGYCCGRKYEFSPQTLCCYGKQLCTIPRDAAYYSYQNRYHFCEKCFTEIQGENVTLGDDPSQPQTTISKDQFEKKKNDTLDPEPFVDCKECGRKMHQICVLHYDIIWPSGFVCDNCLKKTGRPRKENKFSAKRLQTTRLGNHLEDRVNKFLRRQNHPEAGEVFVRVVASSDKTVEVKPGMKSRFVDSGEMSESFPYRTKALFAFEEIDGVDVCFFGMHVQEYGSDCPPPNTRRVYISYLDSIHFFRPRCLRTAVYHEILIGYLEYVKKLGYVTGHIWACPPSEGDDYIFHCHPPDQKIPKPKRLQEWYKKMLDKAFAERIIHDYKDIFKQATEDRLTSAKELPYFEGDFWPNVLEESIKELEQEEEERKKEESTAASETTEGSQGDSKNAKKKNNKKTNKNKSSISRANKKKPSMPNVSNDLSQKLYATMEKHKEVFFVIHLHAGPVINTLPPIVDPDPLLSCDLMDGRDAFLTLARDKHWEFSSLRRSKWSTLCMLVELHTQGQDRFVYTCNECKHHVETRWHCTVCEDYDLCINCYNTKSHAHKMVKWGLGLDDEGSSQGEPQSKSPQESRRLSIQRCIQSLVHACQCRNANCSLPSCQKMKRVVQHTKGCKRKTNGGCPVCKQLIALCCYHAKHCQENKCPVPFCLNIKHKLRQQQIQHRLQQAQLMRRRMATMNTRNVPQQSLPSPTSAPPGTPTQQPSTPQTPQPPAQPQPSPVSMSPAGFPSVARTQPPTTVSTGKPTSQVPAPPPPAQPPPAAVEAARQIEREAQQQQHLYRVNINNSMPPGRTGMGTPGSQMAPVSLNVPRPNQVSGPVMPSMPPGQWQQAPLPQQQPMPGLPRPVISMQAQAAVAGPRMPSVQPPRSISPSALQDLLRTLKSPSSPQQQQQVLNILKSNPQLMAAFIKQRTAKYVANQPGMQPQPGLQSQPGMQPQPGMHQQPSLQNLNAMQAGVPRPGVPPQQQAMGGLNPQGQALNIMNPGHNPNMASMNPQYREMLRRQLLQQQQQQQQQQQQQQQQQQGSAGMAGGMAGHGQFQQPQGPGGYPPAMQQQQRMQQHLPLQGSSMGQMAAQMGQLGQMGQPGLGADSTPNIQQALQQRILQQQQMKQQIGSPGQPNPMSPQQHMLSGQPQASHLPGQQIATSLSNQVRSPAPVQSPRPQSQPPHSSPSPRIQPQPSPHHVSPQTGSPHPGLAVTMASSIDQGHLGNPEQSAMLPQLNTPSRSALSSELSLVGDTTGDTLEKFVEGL
T1 sequence (Q09472 whole entry): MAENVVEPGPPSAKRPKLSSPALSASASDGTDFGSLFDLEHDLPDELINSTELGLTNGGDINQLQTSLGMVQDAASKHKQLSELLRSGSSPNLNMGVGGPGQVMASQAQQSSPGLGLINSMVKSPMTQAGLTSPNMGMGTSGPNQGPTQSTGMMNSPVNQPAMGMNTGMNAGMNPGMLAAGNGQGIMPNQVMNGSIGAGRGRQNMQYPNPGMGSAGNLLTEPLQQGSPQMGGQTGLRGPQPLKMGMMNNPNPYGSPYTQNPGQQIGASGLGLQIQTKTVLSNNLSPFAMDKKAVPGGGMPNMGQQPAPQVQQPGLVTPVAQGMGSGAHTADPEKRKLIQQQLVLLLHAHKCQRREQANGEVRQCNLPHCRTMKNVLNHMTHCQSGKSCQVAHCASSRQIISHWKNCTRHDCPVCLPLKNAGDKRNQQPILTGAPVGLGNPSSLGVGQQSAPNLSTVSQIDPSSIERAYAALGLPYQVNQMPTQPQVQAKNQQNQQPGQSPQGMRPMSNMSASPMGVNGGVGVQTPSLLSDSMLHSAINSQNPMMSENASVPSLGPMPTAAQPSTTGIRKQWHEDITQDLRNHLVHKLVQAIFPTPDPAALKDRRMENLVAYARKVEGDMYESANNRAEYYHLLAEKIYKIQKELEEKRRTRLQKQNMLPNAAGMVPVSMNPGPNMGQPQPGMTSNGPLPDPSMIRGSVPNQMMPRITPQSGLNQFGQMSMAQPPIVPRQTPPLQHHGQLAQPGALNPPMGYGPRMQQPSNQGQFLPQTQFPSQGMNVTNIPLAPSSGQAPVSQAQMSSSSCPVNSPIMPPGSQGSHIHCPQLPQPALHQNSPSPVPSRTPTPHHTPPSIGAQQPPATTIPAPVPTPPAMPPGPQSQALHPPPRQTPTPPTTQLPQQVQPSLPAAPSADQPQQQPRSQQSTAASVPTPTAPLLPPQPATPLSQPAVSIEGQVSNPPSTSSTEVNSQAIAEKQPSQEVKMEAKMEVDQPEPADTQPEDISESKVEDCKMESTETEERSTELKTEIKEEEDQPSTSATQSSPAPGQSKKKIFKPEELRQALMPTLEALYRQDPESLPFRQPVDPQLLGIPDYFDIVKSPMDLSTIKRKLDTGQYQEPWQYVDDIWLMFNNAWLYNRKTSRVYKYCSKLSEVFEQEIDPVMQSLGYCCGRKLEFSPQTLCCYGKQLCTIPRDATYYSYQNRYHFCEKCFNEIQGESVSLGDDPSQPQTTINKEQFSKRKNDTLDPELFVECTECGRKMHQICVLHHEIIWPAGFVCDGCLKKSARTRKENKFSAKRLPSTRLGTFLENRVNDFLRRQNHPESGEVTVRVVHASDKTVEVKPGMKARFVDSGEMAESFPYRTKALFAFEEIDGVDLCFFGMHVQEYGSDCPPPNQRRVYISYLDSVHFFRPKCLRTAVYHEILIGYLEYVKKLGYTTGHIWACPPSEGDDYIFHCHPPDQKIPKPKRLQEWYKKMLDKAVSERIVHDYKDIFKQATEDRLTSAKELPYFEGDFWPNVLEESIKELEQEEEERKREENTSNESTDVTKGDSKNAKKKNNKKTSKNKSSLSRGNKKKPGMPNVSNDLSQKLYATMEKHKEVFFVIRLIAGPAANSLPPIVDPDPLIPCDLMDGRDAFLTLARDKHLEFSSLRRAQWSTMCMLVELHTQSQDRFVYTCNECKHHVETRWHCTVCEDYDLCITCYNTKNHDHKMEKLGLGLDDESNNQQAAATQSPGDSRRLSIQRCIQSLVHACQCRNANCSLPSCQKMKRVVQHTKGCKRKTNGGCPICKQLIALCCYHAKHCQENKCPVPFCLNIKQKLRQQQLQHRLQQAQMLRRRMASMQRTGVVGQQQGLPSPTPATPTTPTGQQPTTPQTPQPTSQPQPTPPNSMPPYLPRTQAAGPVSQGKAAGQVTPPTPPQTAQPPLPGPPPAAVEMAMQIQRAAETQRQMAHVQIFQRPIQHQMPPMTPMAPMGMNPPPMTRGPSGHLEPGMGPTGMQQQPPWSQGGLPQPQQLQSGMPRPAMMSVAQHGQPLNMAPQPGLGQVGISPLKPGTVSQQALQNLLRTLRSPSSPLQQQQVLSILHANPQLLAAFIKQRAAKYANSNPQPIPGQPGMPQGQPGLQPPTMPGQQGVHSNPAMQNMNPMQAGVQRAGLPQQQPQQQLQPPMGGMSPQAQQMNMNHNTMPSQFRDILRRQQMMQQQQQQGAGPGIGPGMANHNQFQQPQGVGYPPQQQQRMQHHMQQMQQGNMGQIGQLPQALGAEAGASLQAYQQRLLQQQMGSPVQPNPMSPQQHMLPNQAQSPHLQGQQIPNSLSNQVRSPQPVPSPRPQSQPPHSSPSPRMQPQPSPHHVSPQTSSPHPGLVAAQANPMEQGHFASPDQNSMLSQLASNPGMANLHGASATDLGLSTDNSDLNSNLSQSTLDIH

As for `CC(C)c1cc(-c2cccc3cc(-c4ccc(C(=O)NCC#Cc5ccc6ncn(C7CCC(=O)NC7=O)c6c5)nc4)ncc23)cc2c1n(C)c(=O)n2C` (stereo not shown) [Example A15, N-(3-(1-(2,6-Dioxopiperidin-3-yl)-1H-benzo[d]imidazol-6-yl)prop-2-yn-1-yl)-5-(8-(7-isopropyl-1,3-dimethyl-2-oxo-2,3-dihydro-1H-benzo[d]imidazol-5-yl)isoquinolin-3-yl)picolinamide], in assay [1], the Dmax was above 80% and the DC50 is below 1 nM. In assay [2], this molecule registered a DC50 above 1000 nM and a Dmax below 20%.

As to `Cc1cc2c(N3CCOc4nc(-c5ccc(C(=O)NCC#Cc6cc7c(C8CCC(=O)NC8=O)cccc7o6)nc5)ncc43)cc(C3CCOCC3)nc2n(C)c1=O` (stereo not shown) [Example B166, 5-(5-(6,8-dimethyl-7-oxo-2-(tetrahydro-2H-pyran-4-yl)-7,8-dihydro-1,8-naphthyridin-4-yl)-6,7-dihydro-5H-pyrimido[4,5-b][1,4]oxazin-2-yl)-N-(3-(4-(2,6-dioxopiperidin-3-yl)benzofuran-2-yl)prop-2-yn-1-yl) picolinamide], the Dmax in assay [1] is 60 to 79%; in assay [2] it was below 20%. Moreover, the values for the 50% degradation concentration (DC50) in assay [1] and in assay [2] were 1 to 9.9 nM and above 1000 nM, respectively.

In assay [1], `Cc1cc2c(N3CCCc4nc(-c5ccc(C(=O)NCC#Cc6nc7cccc(C8CCC(=O)NC8=O)n7n6)nc5)ncc43)cc(C3CCOCC3)cc2n(C)c1=O` (stereo not shown) [Example B156, 5-(5-(1,3-dimethyl-2-oxo-7-(tetrahydro-2H-pyran-4-yl)-1,2-dihydroquinolin-5-yl)-5,6,7,8-tetrahydropyrido[3,2-d]pyrimidin-2-yl)-N-(3-(5-(2,6-dioxopiperidin-3-yl)-[1,2,4]triazolo [1,5-a]pyridin-2-yl)prop-2-yn-1-yl) picolinamide] yielded a Dmax of 20 to 39% and a DC50 of 10 to 99 nM. Moreover, in assay [2], the DC50 was above 1000 nM and the Dmax is below 20%.

With `Cn1c(=O)n(C)c2c(N3CC4CCC(C3)O4)nc(-c3cccc4cc(-c5ccc(C(=O)NCC#Cc6ccc7occ(C89CC(C8)C(=O)NC9=O)c7c6)nc5)ncc34)cc21` [Example A194, 5-(8-(4-(8-oxa-3-azabicyclo[3.2.1]octan-3-yl)-1,3-dimethyl-2-oxo-2,3-dihydro-1H-imidazo[4,5-c]pyridin-6-yl)isoquinolin-3-yl)-N-(3-(3-(2,4-dioxo-3-azabicyclo[3.1.1]heptan-1-yl)benzofuran-5-yl)prop-2-yn-1-yl)picolinamide], the Dmax was above 80% in assay [1] and below 20% in assay [2]. For the same molecule, the DC50 in assay [1] was 1 to 9.9 nM; in assay [2] it was above 1000 nM.

In assay [1], `Cc1cc2c(N3CCCc4nc(-c5ccc(C(=O)NCC#Cc6cc7c(C8CCC(=O)NC8=O)cccc7s6)nc5)ncc43)cc(C3CCOCC3)cc2n(C)c1=O` (stereo not shown) [Example B79, 5-(5-(1,3-dimethyl-2-oxo-7-(tetrahydro-2H-pyran-4-yl)-1,2-dihydroquinolin-5-yl)-5,6,7,8-tetrahydropyrido[3,2-d]pyrimidin-2-yl)-N-(3-(4-(2,6-dioxopiperidin-3-yl)benzo[b]thiophen-2-yl)prop-2-yn-1-yl)picolinamide] returned a Dmax above 80% and a DC50 of 1 to 9.9 nM. For the same molecule, in assay [2], the DC50 is above 1000 nM and the Dmax was below 20%.

Consider `CCc1cc(N(C)c2ccc(-c3cnc(C(=O)NCC#Cc4cccc(NC5CCC(=O)NC5=O)c4)c(C)c3)nc2)c2cc(C)c(=O)n(C)c2c1` (stereo not shown) [Example B16, N-(3-(3-((2,6-Dioxopiperidin-3-yl)amino)phenyl)prop-2-yn-1-yl)-5-((7-ethyl-1,3-dimethyl-2-oxo-1,2-dihydroquinolin-5-yl)(methyl)amino)-5′-methyl-[2,3′-bipyridine]-6′-carboxamide], for which the Dmax in assay [1] is above 80%; in assay [2], 20 to 39%. Besides, the DC50 was in the range of 1 to 9.9 nM in assay [1] and 100 to 999 nM in assay [2].

For the molecule `Cc1cc2c(N3CCCc4nc(-c5ccc(C(=O)NCC#Cc6cc7c(C8CCC(=O)NC8=O)nccc7o6)nc5)ncc43)cccc2n(C)c1=O` (stereo not shown) [Example B106, 5-(5-(1,3-dimethyl-2-oxo-1,2-dihydroquinolin-5-yl)-5,6,7,8-tetrahydropyrido[3,2-d]pyrimidin-2-yl)-N-(3-(4-(2,6-dioxopiperidin-3-yl)furo [3,2-c]pyridin-2-yl)prop-2-yn-1-yl) picolinamide], in assay [1], the Dmax was above 80% and the DC50 was below 1 nM. In assay [2], the DC50 lay in the range of 100 to 999 nM and the Dmax was below 20%.

In assay [1], `Cc1cc2c(N3CCOc4cc(-c5ccc(C(=O)NCC#Cc6ccc7occ(C8CCC(=O)NC8=O)c7c6)nc5)c(F)cc43)cc(N3CC4(COC4)C3)cc2n(C)c1=O` (stereo not shown) [Example B58, 5-(4-(1,3-dimethyl-2-oxo-7-(2-oxa-6-azaspiro[3.3]heptan-6-yl)-1,2-dihydro-quinolin-5-yl)-6-fluoro-3,4-dihydro-2H-benzo[b][1,4]oxazin-7-yl)-N-(3-(3-(2,6-dioxopiperidin-3-yl)benzofuran-5-yl)prop-2-yn-1-yl)picolinamide] had a Dmax above 80% and a DC50 of 1 to 9.9 nM. Also, in assay [2], the DC50 was above 1000 nM and the Dmax was below 20%.

As for `CC(C)c1cc(-c2cccc3cc(-c4ccc(C(=O)NCC#Cc5cc(NC6CCC(=O)NC6=O)nn5C)nc4)ncc23)cc2c1n(C)c(=O)n2C` (stereo not shown) [Example A24, N-(3-(3-((2,6-Dioxopiperidin-3-yl)amino)-1-methyl-1H-pyrazol-5-yl)prop-2-yn-1-yl)-5-(8-(7-isopropyl-1,3-dimethyl-2-oxo-2,3-dihydro-1H-benzo[d]imidazol-5-yl)isoquinolin-3-yl)picolinamide], in assay [1], the Dmax is above 80% and the DC50 is below 1 nM. In assay [2], the DC50 was above 1000 nM and the Dmax was below 20%.

Regarding `Cc1ccc(-c2ccc3c(c2)n(C)c(=O)n3C)c2cnc(-c3ccc(C(=O)NCC#Cc4ccc5occ(C6CCC(=O)NC6=O)c5c4)nc3)cc12` (stereo not shown) [Example A72, 5-(8-(1,3-dimethyl-2-oxo-2,3-dihydro-1H-benzo[d]imidazol-5-yl)-5-methylisoquinolin-3-yl)-N-(3-(3-(2,6-dioxopiperidin-3-yl)benzofuran-5-yl)prop-2-yn-1-yl)picolinamide], in assay [1], the Dmax is above 80% and the DC50 lay within 1 to 9.9 nM. Further, in assay [2], the 50% degradation concentration (DC50) was above 1000 nM and the Dmax was below 20%.

In assay [1], `Cc1cc2c(N3CCCc4nc(-c5ccc(C(=O)NCC#Cc6cc7c(C8CCC(=O)NC8=O)nccc7o6)nc5)ncc43)cc(C3CCOCC3)cc2n(C)c1=O` (stereo not shown) [Example B94, 5-(5-(1,3-dimethyl-2-oxo-7-(tetrahydro-2H-pyran-4-yl)-1,2-dihydroquinolin-5-yl)-5,6,7,8-tetrahydropyrido[3,2-d]pyrimidin-2-yl)-N-(3-(4-(2,6-dioxopiperidin-3-yl)furo[3,2-c]pyridin-2-yl)prop-2-yn-1-yl)picolinamide] yielded a Dmax above 80% and a DC50 below 1 nM. In assay [2], this molecule displayed a DC50 of 1 to 9.9 nM and a Dmax of 20 to 39%.

In assay [1], `Cc1cc(-c2cc3cccc(-c4nc(N5CCOCC5)cc5c4cc(C)c(=O)n5C)c3cn2)cnc1C(=O)NCC#Cc1cc2c(C3CCC(=O)NC3=O)cccc2o1` (stereo not shown) [Example B167, 5-(8-(1,3-dimethyl-7-morpholino-2-oxo-1,2-dihydro-1,6-naphthyridin-5-yl)isoquinolin-3-yl)-N-(3-(4-(2,6-dioxopiperidin-3-yl)benzofuran-2-yl)prop-2-yn-1-yl)-3-methylpicolinamide] had a Dmax above 80% and a DC50 of 1 to 9.9 nM. In assay [2], this molecule returned a DC50 of 1 to 9.9 nM and a Dmax of 60 to 79%.

`Cc1cc2c(N3CCCc4nc(-c5ccc(C(=O)NCC#Cc6cc7c(C8CCC(=O)NC8=O)cccc7o6)nc5)ncc43)nc(N3CCOCC3)cc2n(C)c1=O` (stereo not shown) [Example B28, 5-(5-(1,3-dimethyl-7-morpholino-2-oxo-1,2-dihydro-1,6-naphthyridin-5-yl)-5,6,7,8-tetrahydropyrido[3,2-d]pyrimidin-2-yl)-N-(3-(4-(2,6-dioxopiperidin-3-yl)benzofuran-2-yl)prop-2-yn-1-yl)picolinamide]: in assay [1], the Dmax was above 80% and the DC50 fell in the range of 1 to 9.9 nM. In assay [2], this molecule displayed a DC50 of 100 to 999 nM and a Dmax below 20%.

Regarding `CC(C)c1cc(-c2cn(C)c(=O)c3cc(-c4ccc(C(=O)NCC#Cc5ccc6occ(C7CCC(=O)NC7=O)c6c5)nc4)ncc23)cc2c1n(C)c(=O)n2C` (stereo not shown) [Example A97, N-(3-(3-(2,6-dioxo-piperidin-3-yl)benzofuran-5-yl)prop-2-yn-1-yl)-5-(8-(7-isopropyl-1,3-dimethyl-2-oxo-2,3-dihydro-1H-benzo [d]imidazol-5-yl)-6-methyl-5-oxo-5,6-dihydro-2,6-naphthyridin-3-yl) picolinamide], in assay [1], the Dmax is above 80% and the DC50 lay within 1 to 9.9 nM. In addition, in assay [2], the half-maximal degradation concentration (DC50) fell in the range of 10 to 99 nM and the Dmax lay in the range of 40 to 59%.

Turning to `Cc1cc(-c2cc3cccc(-c4ccc5c(c4)n(C)c(=O)n5C)c3cn2)cnc1C(=O)NCC#Cc1cc2c([C@@H]3CCC(=O)NC3=O)cccc2o1` [Example A182, (S)-5-(8-(1,3-dimethyl-2-oxo-2,3-dihydro-1H-benzo[d]imidazol-5-yl)isoquinolin-3-yl)-N-(3-(4-(2,6-dioxopiperidin-3-yl)benzofuran-2-yl)prop-2-yn-1-yl)-3-methylpicolinamide], the Dmax in assay [1] is above 80%; in assay [2] it was below 20%. In addition, the DC50 in assay [1] was 1 to 9.9 nM; in assay [2] it was above 1000 nM.

In assay [1], `Cn1c(=O)n(C)c2cc(-c3cccc4cc(-c5ccc(C(=O)NCC#Cc6cc7c(C8CCC(=O)NC8=O)cccc7o6)nc5)ncc34)ccc21` (stereo not shown) [Example A169, 5-(8-(1,3-dimethyl-2-oxo-2,3-dihydro-1H-benzo[d]imidazol-5-yl)isoquinolin-3-yl)-N-(3-(4-(2,6-dioxo-piperidin-3-yl)benzofuran-2-yl)prop-2-yn-1-yl)picolinamide] gave a Dmax above 80% and a DC50 below 1 nM. Besides, in assay [2], the DC50 is above 1000 nM and the Dmax is below 20%.
